Assays:
Experiment in all cases: relative viability (nuclei count vs DMSO), 5 days (fraction); higher = more cells survive
XMD13-2 + OSI-027 = compound: C1CC1C(=O)NC2=NNC3=C2C=CC(=C3)C4=CC(=CC=C4)C(=O)NC5CC5 [XMD13-2] + COc1cccc2cc(-c3nc([C@H]4CC[C@H](C(=O)O)CC4)n4ncnc(N)c34)[nH]c12 [OSI-027] (partner 0.5 µM)
Procedure, shortened: (§1)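 Medians of duplicate plates are given as relative viability. That measure is the nuclei count in treated wells divided by the count in vehicle wells. Counts were taken on 4× images of lung cancer cell lines in 1536-well plates, 5 days after pin-tool dosing the day after seeding with one drug alone or a fixed anchor-drug dose plus five library-drug doses (not always all listed) in √10 steps.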

Dasatinib + Navitoclax = compound: Cc1nc(Nc2ncc(C(=O)Nc3c(C)cccc3Cl)s2)cc(N2CCN(CCO)CC2)n1 [Dasatinib] + CC1(C)CCC(c2ccc(Cl)cc2)=C(CN2CCN(c3ccc(C(=O)NS(=O)(=O)c4ccc(N[C@H](CCN5CCOCC5)CSc5ccccc5)c(S(=O)(=O)C(F)(F)F)c4)cc3)CC2)C1 [Navitoclax] (partner 0.5 µM)
Procedure, shortened: as §1

Dasatinib + Foretinib = compound: Cc1nc(Nc2ncc(C(=O)Nc3c(C)cccc3Cl)s2)cc(N2CCN(CCO)CC2)n1 [Dasatinib] + COc1cc2c(Oc3ccc(NC(=O)C4(C(=O)Nc5ccc(F)cc5)CC4)cc3F)ccnc2cc1OCCCN1CCOCC1 [Foretinib] (partner 0.25 µM)
Procedure, shortened: as §1

ALW-II-49-7 + OSI-027 = compound: Cc1ccc(C(=O)Nc2cccc(C(F)(F)F)c2)cc1Nc1cncc(C(N)=O)c1 [ALW-II-49-7] + COc1cccc2cc(-c3nc([C@H]4CC[C@H](C(=O)O)CC4)n4ncnc(N)c34)[nH]c12 [OSI-027] (partner 0.5 µM)
Procedure, shortened: as §1

| Cell Line | relative viability (XMD13-2 + OSI-027; first compound 0.05 µM) | relative viability (XMD13-2 + OSI-027; first compound 0.1581 µM) | relative viability (XMD13-2 + OSI-027; first compound 0.5 µM) | relative viability (XMD13-2 + OSI-027; first compound 1.581 µM) | relative viability (XMD13-2 + OSI-027; first compound 5 µM) | relative viability (Dasatinib + Navitoclax; first compound 0.005 µM) | relative viability (Dasatinib + Navitoclax; first compound 0.01581 µM) | relative viability (Dasatinib + Navitoclax; first compound 0.05 µM) | relative viability (Dasatinib + Navitoclax; first compound 0.1581 µM) | relative viability (Dasatinib + Navitoclax; first compound 0.5 µM) | relative viability (Dasatinib + Foretinib; first compound 0.005 µM) | relative viability (Dasatinib + Foretinib; first compound 0.01581 µM) | relative viability (Dasatinib + Foretinib; first compound 0.05 µM) | relative viability (Dasatinib + Foretinib; first compound 0.1581 µM) | relative viability (Dasatinib + Foretinib; first compound 0.5 µM) | relative viability (ALW-II-49-7 + OSI-027; first compound 0.08 µM) | relative viability (ALW-II-49-7 + OSI-027; first compound 0.253 µM) | relative viability (ALW-II-49-7 + OSI-027; first compound 0.8 µM) | relative viability (ALW-II-49-7 + OSI-027; first compound 2.53 µM) | relative viability (ALW-II-49-7 + OSI-027; first compound 8 µM) |
| --- | --- | --- | --- | --- | --- | --- | --- | --- | --- | --- | --- | --- | --- | --- | --- | --- | --- | --- | --- | --- |
| NCI-H2023 | 0.58 | 0.36 | 0.4 | 0.357 | 0.341 | 0.978 | 0.854 | 0.795 | 0.778 | 0.488 | 0.642 | 0.749 | 0.434 | 0.377 | 0.297 | 0.379 | 0.44 | 0.37 | 0.354 | 0.3 |
| NCI-H2085 | 0.74 | 0.749 | 0.757 | 0.654 | 0.916 | 0.757 | 0.929 | 0.737 | 0.411 | 0.245 | 0.855 | 0.783 | 0.338 | 0.198 | 0.173 | 0.778 | 0.748 | 0.625 | 0.806 | 0.738 |
| NCI-H2087 | 0.716 | 0.69 | 0.482 | 0.565 | 0.489 | 0.997 | 0.873 | 1.07 | 0.972 | 0.532 | 1.2 | 1.16 | 1.31 | 0.756 | 0.464 | 0.578 | 0.537 | 0.525 | 0.547 | 0.51 |
| NCI-H2126 | 0.8 | 0.665 | 0.666 | 0.702 | 0.837 | 0.868 | 0.76 | 0.804 | 0.621 | 0.374 | 1.18 | 0.799 | 1.2 | 0.852 | 0.425 | 0.664 | 0.64 | 0.65 | 0.607 | 0.653 |
| NCI-H2170 | 0.748 | 0.703 | 0.744 | 0.559 | 0.704 | 0.545 | 0.473 | 0.572 | 0.267 | 0.232 | 0.958 | 0.927 | 0.708 | 0.678 | 0.491 | 0.71 | 0.931 | 0.67 | 0.664 | 0.703 |
| NCI-H2228 | 0.824 | 0.605 | 0.597 | 0.518 | 0.546 | 0.845 | 0.644 | 1.44 | 0.475 | 0.249 | 0.853 | 0.614 | 0.766 | 0.51 | 0.407 | 0.502 | 0.269 | 0.496 | 0.59 | 0.471 |
| NCI-H2347 | 0.394 | 0.455 | 0.426 | 0.444 | 0.413 | 0.875 | 0.692 | 0.467 | 0.285 | 0.228 | 0.625 | 0.504 | 0.436 | 0.378 | 0.495 | 0.386 | 0.396 | 0.443 | 0.36 | 0.276 |
| NCI-H2405 | 0.632 | 0.543 | 0.587 | 0.676 | 0.598 | 0.684 | 0.424 | 0.254 | 0.165 | 0.116 | 0.983 | 0.714 | 0.564 | 0.304 | 0.233 | 0.634 | 0.643 | 0.583 | 0.558 | 0.609 |
| NCI-H3122 | 1.02 | 0.924 | 1.02 | 0.917 | 0.7 | 1.03 | 1.01 | 1.04 | 0.977 | 0.792 | 0.932 | 0.871 | 0.955 | 0.942 | 0.567 | 0.905 | 0.254 | 1.05 | – | 1.09 |
| PC-3 [JPC-3] | 0.831 | 0.663 | 0.746 | 0.707 | 0.754 | 0.785 | 0.818 | 0.951 | 0.788 | 0.456 | 1.05 | 1.02 | 1.05 | 0.948 | 0.434 | 0.655 | 0.733 | 0.805 | 0.688 | 0.63 |
| PC-14 | 1.04 | 0.832 | 0.98 | 0.842 | 0.971 | 0.976 | 0.982 | 1.09 | 0.647 | 0.0883 | 0.981 | 0.948 | 0.912 | 0.712 | 0.335 | 0.815 | 0.824 | 0.622 | 0.645 | 0.579 |
| RERF-LC-KJ | 0.655 | 0.662 | 0.624 | 0.564 | 0.452 | 1.11 | 0.537 | 0.855 | 0.669 | 0.656 | 0.888 | 0.831 | 0.989 | 0.824 | 0.779 | 0.511 | 0.564 | 0.504 | 0.559 | 0.535 |
| SK-LU-1 | 0.382 | 0.375 | 0.426 | 0.311 | 0.389 | 0.812 | 0.57 | 0.301 | 0.226 | 0.154 | 0.543 | 0.343 | 0.295 | 0.171 | 0.179 | 0.269 | 0.345 | 0.313 | 0.289 | 0.252 |
| SK-MES-1 | 0.597 | 0.571 | 0.618 | 0.564 | 0.673 | 1.18 | – | 1.41 | 0.802 | 0.429 | 1.01 | 0.73 | 0.687 | 0.482 | 0.231 | 0.588 | 0.547 | 0.578 | 0.456 | 0.331 |
| SW 1573 | 0.691 | 0.581 | 0.647 | 0.497 | 0.36 | 0.906 | 0.899 | 0.946 | 0.473 | 0.481 | 1.05 | 0.746 | 0.783 | 0.695 | 0.525 | 0.683 | 0.653 | 0.524 | 0.656 | 0.505 |

From the supplement of paper PMC10307832
